By MIC is commonly meant the least concentration at which growth counts as inhibited. A high value points to a less susceptible organism.

We go through eleven compounds from ChEMBL document CHEMBL1146362, “Organoiodine(III) mediated synthesis of 3,9-diaryl- and 3,9-difuryl-bis-1,2,4-triazolo[4,3-a][4,3-c]pyrimidines as antibacterial agents” (2007).

Assay [1] relates to Salmonella typhi. As to the kind of experiment: Antibacterial activity against Salmonella typhi MTCC 733 after 24 hrs by agar diffusion assay. The assay is classed as functional.
Assay [2] has as its system Staphylococcus aureus. Nature of the assay: Antibacterial activity against Staphylococcus aureus MTCC 3160 after 24 hrs by agar dilution assay. The assay is classed as functional. The conditions noted are these: MTCC 3160, 24 h. Background: In agar dilution the substance is mixed into plates at graded concentrations.
For assay [3], the system named is Bacillus subtilis. Nature of the assay: Antibacterial activity against Bacillus subtilis MTCC 121 after 24 hrs by agar diffusion assay. The assay is classed as functional. (In general: A growth-free zone around the sample is the usual read-out of agar diffusion tests.)
Assay [4] has as its system Salmonella typhi. As to the kind of experiment: Antibacterial activity against Salmonella typhi MTCC 733 after 24 hrs by agar dilution assay. The class given is functional, Salmonella enterica subsp. enterica serovar Typhi. The conditions noted are these: Salmonella enterica, MTCC 733, 24 h.
Assay [5] deals with Staphylococcus epidermidis. Nature of the assay: Antibacterial activity against Staphylococcus epidermidis MTCC 2639 after 24 hrs by agar dilution assay. The assay is classed as functional. The conditions noted are these: MTCC 2639, 24 h.
Assay [6] has as its system Staphylococcus epidermidis. As to the kind of experiment: Antibacterial activity against Staphylococcus epidermidis MTCC 2639 after 24 hrs by agar diffusion assay. The class given is functional.
Assay [7] has as its system Escherichia coli. Nature of the assay: Antibacterial activity against Escherichia coli MTCC 51 after 24 hrs by agar diffusion assay. The assay is classed as functional.
The subject of assay [8] is Staphylococcus aureus. As to the kind of experiment: Antibacterial activity against Staphylococcus aureus MTCC 3160 after 24 hrs by agar diffusion assay. The class given is functional.
Assay [9] deals with Bacillus subtilis. Nature of the assay: Antibacterial activity against Bacillus subtilis MTCC 121 after 24 hrs by agar dilution assay. The assay is classed as functional. The conditions noted are these: MTCC 121, 24 h.
The test system of assay [10] is Escherichia coli. Nature of the assay: Antibacterial activity against Escherichia coli MTCC 51 after 24 hrs by agar dilution assay. The class given is functional. The conditions noted are these: MTCC 51, 24 h.

Each structure is given as a SMILES string. Values after ≈ are worked out from the molar mass of the structure shown. Active and inactive are the calls of the source. The rule behind the calls is not given here.

Consider `Cc1ccc(-c2nnc3n2ccc2nnc(-c4ccc(C)cc4)n23)cc1`, for which the result in assay [1] (Salmonella enterica subsp. enterica serovar Typhi), in [6], in [7] and in [8] was inactive. Moreover, the MIC was > 64 mg/L in assay [2]; > 64 mg/L in [4]; > 64 mg/L in assay [5]; 8 mg/L (≈ 23.5 µM) in [9]; > 64 mg/L in assay [10]. Further, the “inhibition zone (IZ)” value in [3] is given as 20.83 mm.

In the case of `c1coc(-c2nnc3n2ccc2nnc(-c4ccco4)n23)c1`, the “inhibition zone (IZ)” value in assay [1] turned out to be 10 mm; in [3], 20 mm; in [6], 10 mm; in assay [7], 10 mm; in [8], 40 mm. Further, the MIC was 0.5 mg/L (≈ 1.71 µM) in [2]; 64 mg/L (≈ 219 µM) in assay [4]; 64 mg/L (≈ 219 µM) in assay [5]; 8 mg/L (≈ 27.4 µM) in assay [9]; 64 mg/L (≈ 219 µM) in [10].

`CC(=O)NC[C@H]1CN(c2ccc(N3CCOCC3)c(F)c2)C(=O)O1` [LINEZOLID]: the MIC in [4] was found to be 2 mg/L (≈ 5.93 µM); in assay [5], 8 mg/L (≈ 23.7 µM); in [9] it was 2 mg/L (≈ 5.93 µM); in assay [10] it was 8 mg/L (≈ 23.7 µM).

For `COc1ccc(OC)c(-c2nnc3n2ccc2nnc(-c4cc(OC)ccc4OC)n23)c1`, the “inhibition zone (IZ)” value is on record as 20 mm in [1], 15.16 mm in assay [3], 20 mm in [6] and 20.16 mm in assay [8]. Besides, the MIC was 8 mg/L (≈ 18.5 µM) in [2]; 8 mg/L (≈ 18.5 µM) in assay [4]; 8 mg/L (≈ 18.5 µM) in assay [5]; 32 mg/L (≈ 74 µM) in assay [9]; > 64 mg/L in assay [10]. Besides, the result in assay [7] was inactive.

As for `COc1ccc(-c2nnc3n2ccc2nnc(-c4ccc(OC)cc4)n23)cc1`, the “inhibition zone (IZ)” value in assay [1] is on record as 10 mm; in [3] it was 10 mm; in assay [8], 10.83 mm. Further, the MIC in [2] is 64 mg/L (≈ 172 µM); in assay [4], 64 mg/L (≈ 172 µM); in assay [5] it was > 64 mg/L; in [9], 64 mg/L (≈ 172 µM); in assay [10], > 64 mg/L. For the same compound, the result in assay [6] and in assay [7] was inactive.

On to `O=[N+]([O-])c1ccc(-c2nnc3n2ccc2nnc(-c4ccc([N+](=O)[O-])cc4)n23)cc1`, for which the “inhibition zone (IZ)” value is 30 mm in assay [1]; 30 mm in [3]; 25.16 mm in assay [6]; 25 mm in [7]; 30 mm in assay [8]. For the same compound, the MIC was determined as 1 mg/L (≈ 2.49 µM) in assay [2]; 1 mg/L (≈ 2.49 µM) in assay [4]; 2 mg/L (≈ 4.97 µM) in [5]; 1 mg/L (≈ 2.49 µM) in [9]; 2 mg/L (≈ 4.97 µM) in [10].

As to `Clc1ccc(-c2nnc3n2ccc2nnc(-c4ccc(Cl)cc4)n23)cc1`, the results for the “inhibition zone (IZ)” value in assay [1], in [3] and in assay [8] were 20 mm, 20 mm and 15 mm, respectively. For the same compound, the MIC in assay [2] was 32 mg/L (≈ 83.9 µM); in [4] it was 8 mg/L (≈ 21 µM); in assay [5], > 64 mg/L; in assay [9] it was 8 mg/L (≈ 21 µM); in [10], > 64 mg/L. In addition, the outcome in [6] and in assay [7] was inactive.

In the case of `Fc1ccc(-c2nnc3n2ccc2nnc(-c4ccc(F)cc4)n23)cc1`, the “inhibition zone (IZ)” value in [1] is 10 mm; in [3] it was 25 mm; in assay [6] it was 25 mm; in assay [8], 24.83 mm. Also, the MIC in [2] is 4 mg/L (≈ 11.5 µM); in assay [4] it was 64 mg/L (≈ 184 µM); in [5] it was 4 mg/L (≈ 11.5 µM); in [9], 2 mg/L (≈ 5.74 µM); in [10], 4 mg/L (≈ 11.5 µM). For the same compound, the result in assay [7] was inactive.

As to `N[C@@H](C(=O)N[C@@H]1C(=O)N2C(C(=O)O)=C(Cl)CS[C@H]12)c1ccccc1` [CEFACLOR ANHYDROUS], the MIC in [2] turned out to be 4 mg/L (≈ 10.9 µM); in assay [4] it was 2 mg/L (≈ 5.44 µM); in assay [5] it was 4 mg/L (≈ 10.9 µM); in [9] it was 8 mg/L (≈ 21.8 µM); in assay [10], 4 mg/L (≈ 10.9 µM).

As for `O=[N+]([O-])c1ccc(-c2nnc3n2ccc2nnc(-c4ccc([N+](=O)[O-])o4)n23)o1`, the “inhibition zone (IZ)” value in assay [1] was found to be 35.16 mm; in assay [3] it was 40 mm; in assay [6] it was 35 mm; in [7] it was 30 mm; in assay [8], 20.83 mm. Besides, the MIC in assay [2] was 8 mg/L (≈ 20.9 µM); in assay [4] it was 1 mg/L (≈ 2.62 µM); in [5], 1 mg/L (≈ 2.62 µM); in [9], 0.5 mg/L (≈ 1.31 µM); in assay [10], 2 mg/L (≈ 5.23 µM).

On to `Brc1ccc(-c2nnc3n2ccc2nnc(-c4ccc(Br)cc4)n23)cc1`, for which the “inhibition zone (IZ)” value in assay [1] is 15 mm. The MIC is > 64 mg/L in assay [2]; 32 mg/L (≈ 68.1 µM) in [4]; > 64 mg/L in [5]; > 64 mg/L in assay [9]; > 64 mg/L in assay [10]. The outcome in assay [3], in assay [6], in assay [7] and in [8] was inactive.
